# Source: patent US20260185169A1, “MOLECULAR SIGNATURES TO PREDICT LONG-TERM LIVER FIBROSIS PROGRESSION” (THE BOARD OF REGENTS OF THE UNIVERSITY OF TEXAS SYSTEM, priority 2022, published 2026)
# System: FPS and molecular pathways
# Test: Modulation of FPS and molecular pathways in hepatic transcriptome (RNA-Seq, CES/GSEI) in CENTAUR trial biopsies
# Type: in vivo, human
# Excerpt: Archived formalin-fixed liver tissues from index biopsy were used for histological assessment in all patients (FIG. 1 and Table 1A-11) to confirm no to minimal fibrosis (METAVIR fibrosis stage F0 or F1). The PLS validation set 1 (and FPS derivation set 1) is a case-control series of 43 chronic hepatitis C patients from a prior cohort study consecutively diagnosed and followed at Johns Hopkins and Massachusetts General Hospital between 1998 and 2010. Twenty-five patients were co-infected with HIV and on anti-retroviral therapies. The patients were regularly followed up with ultrasound elastography at median interval of 1.1 (IQR: 0.6-2.0) years. Liver stiffness measurement >7.0 and >9.5 kPa were regarded as indication of F2 and F3 fibrosis, respectively. The PLS validation set 2 (and FPS derivation set 2) is a case-control series of 38 patients who consecutively underwent liver transplantation for HCV-related cirrhosis and protocol liver biopsies at year 1, 2, and 5 after transplantation (and additional biopsies as needed to evaluate graft rejection, which were excluded) at Baylor University between 2002 and 2007. Median number of biopsies was 8 (IQR: 6-9) per patient with median interval between serial biopsies of 8.6 (IQR: 0.3-12.6) months. […] The FPS derivation set 3 is a cross-sectional series of 31 NAFLD patients who underwent diagnostic liver biopsy at Hiroshima University between 2003 and 2015. The FPS derivation set 4 is a cross-sectional series of 309 NAFLD patients who underwent diagnostic liver biopsy (F0 or F1 fibrosis) at Massachusetts General Hospital between 2009 and 2016. […] The cases were defined as patients who had F-stage increase of one stage or more in the follow-up biopsy. The FPS validation set 2 includes 78 patients with fibrotic liver diseases from various etiologies, for which de-identified fresh liver tissues were available from standard-care hepatic resection for organotypic ex vivo tissue culture at University of Texas Southwestern and Mount Sinai. The FPS validation set 3 consists of NASH patients with F1-F3 fibrosis who underwent liver biopsy before and after 1-year treatment with cenicriviroc (n=9) or placebo (n=10) in the phase Ilb CENTAUR trial (NCT02217475). Decrease of one or more fibrosis stage was regarded as anti-fibrotic response. The serum surrogate FPS was assessed in archived de-identified serum samples from 79 patients with chronic liver diseases. The FPSec validation set is a cohort of 122 patients with compensated (Child-Pugh class A) cirrhosis patients with mixed etiologies enrolled at University of Michigan between 2004 and 2006 as reported in our previous study. Hepatic decompensation was defined as newly developed massive ascites, hepatic encephalopathy, bleeding from gastroesophageal varices, or liver transplantation. The study was approved by institutional review board at respective institutions with written informed consent or exemption for use of archived de-identified samples (protocol numbers: STU062018-058, STU072018-071, 2010P000220/PHS, HS13-00159).
# Total RNA was isolated from fixed tissue sections by using High Pure RNA Paraffin kit (Roche), and assessed for quality by qRT-PCR of RPL13A. Total RNA from the PCLS tissues was isolated using RNeasy kit (Qiagen). RNA samples (100-200 ng) were subjected to the PLS/FPS assay implemented in the nCounter platform (NanoString), and transcriptome profiling of the CENTAUR trial samples was performed by RNA-Seq (TrueSeq RNA Access, Illumina). Expression of BCL2, COL1A1, and ACTA2 genes was measured by qRT-PCR (Table 3). Serum protein profiling was performed by using xMAP assay (Luminex). […]
# [1] = Fibrosis improved, NASH patients, Hallmark set, Cell cycle, DNA damage, response
# [2] = Fibrosis improved, NASH patients, Hallmark set, Cellular signaling
# [3] = Fibrosis improved, NASH patients, Hallmark set, Inflammatory response, immunity
# [4] = Fibrosis improved, NASH patients, Hallmark set, Metabolism, biosynthesis
# [5] = Fibrosis improved, NASH patients, Hallmark set, Pathogenic response
# [6] = Fibrosis improved, NASH patients, Hallmark set, Sex hormone signaling
# [7] = Fibrosis improved, NASH patients, Hallmark set, Stress response
# [8] = Fibrosis improved, NASH patients, Immune cell signature (GSE65136)
# [9] = Fibrosis improved, NASH patients, Nuclear receptor signaling (curated pathway members)
# [10] = Fibrosis improved, NASH patients, PPAR agonists on mouse primary hepatocytes (GSE27948)
# [11] = Fibrosis not improved, NASH patients, Hallmark set, Cell cycle, DNA damage, response
structure (smiles),measurement,setting,value
CCCCOCCOc1ccc(-c2ccc3c(c2)/C=C(/C(=O)Nc2ccc([S@@+]([O-])Cc4cncn4CCC)cc2)CCCN3CC(C)C)cc1 [Cenicriviroc],modulation of TGF-β and PDGFRB pathways,1-year cenicriviroc treatment,unchanged
same,proportion of patients with substantial CES reduction (FPS response),"CENTAUR trial, 1-year treatment, paired pre/post biopsies",22%
same,"NES, DNA repair gene set",[1],1.44
same,"NES, G2M checkpoint gene set",[1],−1.33
same,"NES, Mitotic spindle gene set",[1],−1.61
same,"NES, Apoptosis gene set","Fibrosis improved, NASH patients, Hallmark set, Cell death",1.32
same,"NES, E2F targets gene set",[2],−1.36
same,"NES, Hedgehog signaling gene set",[2],−0.65
same,"NES, KRAS signaling gene set",[2],1.31
same,"NES, Myc targets v1 gene set",[2],1.56
same,"NES, Myc targets v2 gene set",[2],1.26
same,"NES, Notch signaling gene set",[2],1.00
same,"NES, PI3K/AKT/mTOR signaling gene set",[2],0.91
same,"NES, TGFβ signaling gene set",[2],0.81
same,"NES, TNFα signaling via NF-κB gene set",[2],0.96
same,"NES, Wnt/β-catenin signaling gene set",[2],−1.07
same,"NES, mTORC1 signaling gene set",[2],1.71
same,"NES, p53 pathway gene set",[2],1.00
same,"NES, Allograft rejection gene set",[3],1.83
same,"NES, IL2 STAT5 signaling gene set",[3],0.89
same,"NES, IL6 JAK STAT3 signaling gene set",[3],0.95
same,"NES, Inflammatory response gene set",[3],1.38
same,"NES, Interferon-α response gene set",[3],2.12
same,"NES, Interferon-γ response gene set",[3],2.07
same,"NES, Adipogenesis gene set",[4],1.60
same,"NES, Bile acid metabolism gene set",[4],1.62
same,"NES, Cholesterol homeostasis gene set",[4],1.19
same,"NES, Coagulation gene set",[4],1.57
same,"NES, Complement gene set",[4],2.07
same,"NES, Fatty acid metabolism gene set",[4],2.22
same,"NES, Glycolysis gene set",[4],1.10
same,"NES, Heme metabolism gene set",[4],−0.98
same,"NES, Oxidative phosphorylation gene set",[4],2.49
same,"NES, Peroxisome gene set",[4],1.49
same,"NES, Protein secretion gene set",[4],1.57
same,"NES, Xenobiotic metabolism gene set",[4],1.66
same,"NES, Angiogenesis gene set",[5],1.47
same,"NES, Epithelial mesenchymal transition gene set",[5],1.41
same,"NES, Androgen response gene set",[6],1.52
same,"NES, Estrogen response early gene set",[6],−0.79
same,"NES, Estrogen response late gene set",[6],1.12
same,"NES, Hypoxia gene set",[7],0.97
same,"NES, Myogenesis gene set",[7],−0.95
same,"NES, Reactive oxygen species gene set",[7],1.07
same,"NES, UV response up gene set",[7],1.12
same,"NES, Unfolded protein response gene set",[7],1.34
same,"NES, B cell (naïve) gene set",[8],−0.52
same,"NES, CD4 T cell (naïve) gene set",[8],−0.57
same,"NES, CD8 T cell gene set",[8],1.13
same,"NES, DC (activate) gene set",[8],1.35
same,"NES, Gamma delta T cell gene set",[8],1.09
same,"NES, Macrophage (M1) gene set",[8],1.42
same,"NES, Macrophage (M2) gene set",[8],2.66
same,"NES, Mast cell (active) gene set",[8],1.22
same,"NES, Mast cell (rest) gene set",[8],−1.59
same,"NES, Memory B cell gene set",[8],−0.72
same,"NES, Memory T cell (rest) gene set",[8],0.80
same,"NES, Monocyte gene set",[8],2.81
same,"NES, NK cell (rest) gene set",[8],1.12
same,"NES, Neutrophil gene set",[8],1.87
same,"NES, Plasma cell gene set",[8],0.98
same,"NES, Regulatory T cell gene set",[8],−0.99
same,"NES, T follicular helper cell gene set",[8],1.22
same,"NES, FXR pathway gene set",[9],−1.06
same,"NES, PPAR signaling gene set (first listed)",[9],1.81
same,"NES, PPAR signaling gene set (second listed)",[9],1.70
same,"NES, PPARα pathway gene set (first listed)",[9],1.55
same,"NES, PPARα pathway gene set (second listed)",[9],0.92
same,"NES, RAR/RXR pathway gene set",[9],−1.50
same,"NES, RXR/VDR pathway gene set",[9],−1.10
same,"NES, GW7647 (PPARa agonist) gene set","Fibrosis improved, NASH patients, PPAR agonist on human primary hepatocytes (GSE53399)",1.84
same,"NES, GW501516 (PPARd agonist) gene set",[10],1.16
same,"NES, ROSIGLITAZONE (PPARg agonist) gene set",[10],1.36
same,"NES, WY14643 (PPARa agonist) gene set",[10],1.56
same,"NES, PDGFRB target gene signature","Fibrosis improved, NASH patients, iLINCS",−0.83
same,"NES, DNA repair gene set",[11],0.85
same,"NES, G2M checkpoint gene set",[11],2.00
